These results are taken from paper PMC6844378, “Structure activity relationship studies on Amb639752: toward the identification of a common pharmacophoric structure for DGKα inhibitors” (Journal of Enzyme Inhibition and Medicinal Chemistry, 2019).

For one series, the target named is DGKα (Homo sapiens, UniProt P23743). The series is described as follows: DGK assay on OST-DGKα enriched MDCK homogenates. It counts as biochemical. More on the design: expressed in transfected cells; host or cells: MDCK cells (vector-infected, doxycycline-induced), crude homogenate. The note with it: for remaining activity at 100 µM: percentage of residual DGKα activity compared to DMSO control, OST-DGKα overexpressing cell lysates, saturating DAG and ATP, read-out: Residue activity at 100 µM; for IC50: residual OST-DGKα activity at 0.1, 1.0, 10.0 and 100.0 µM. The protocol: Madin-Darby canine kidney (MDCK) cells stably expressing One Strep Tag DGKα (OST-DGKα) were prepared by infecting MDCK cells with a vector expressing an inducible OST tagged DGKα constructs. MDCK cells infected with empty vector were used as controls. MDCK cells were cultured in MEM (minimal essential medium) with 5% FBS (foetal bovine serum) and 1% antibiotic–antimycotic solution. Routinely, cells were splitted every 3–4 days with trypsin–EDTA 0.25% in standard 100 mm dishes.
Large cultures of MDCK cells for enzyme preparation were done by plating 5 × 10^6 cells in 245 mm^2 dishes. Once they reached nearly 70% confluence, cells were treated with doxycycline (1 µg/mL, two days). […] Cells were collected with a rubber scraper, homogenised by passing them through a 29 G-needle syringe 20 times and stored in aliquots at –80 °C. Presence of OST-DGKα was confirmed by western blotting and enzyme assay, transduced DGKα has an activity >100 folds the endogenous DGK.
Essentionally, the same procedure was followed as reported previously in Velnati et al.[9] In brief, DGK activity was assayed by measuring initial velocities (5 min at 27 °C) in presence of saturating substrate concentrations. Reaction conditions: 0.9 µg/µL 1,2-dioleoyl-sn-glycerol, 5 mM ATP, 0.01 µCi/µL [γ^32P]-ATP, 1 mM sodium orthovanadate, 10 mM MgCl2, 1.2 mM EGTA in 7.5 mM Hepes pH 8[12]. Reaction mixture is assembled mixing enzyme (24.5 µL of homogenate), 100× inhibitor or DMSO (0.5 µL), 5× ATP solution (10 µL of 25 mM ATP, 0.05 µCi/µL [γ^32P]-ATP (Perkin-Elmer, Milan, Italy), 5 mM sodium orthovanadate, 50 mM MgCl2), and 3.3× DAG solution (15 µL of 3 µg/µL 1,2-dioleoyl-sn-glycerol resuspended by sonication in 4 mM EGTA in 25 mM Hepes pH 8). The reaction was stopped after 5 min by adding 200 µL of freshly prepared 1 M HCl and lipid was extracted by adding 200 µL of CH3OH:CHCl3 1:1 solution and vortexing for 1 min. The two phases were separated by centrifugation (12,000 RCF for 2 min). Twenty-five microlitres of the lower organic phase was spotted in small drops on silica TLC plates. TLC was run 10 cm and dried before radioactive signals were detected by GS-250 molecular imager and was quantified by quantity one (Bio-Rad, Hercules, CA) software assuring the absence of saturated spots.
Percentage residual activity was calculated as follows: (OST-DGKα homogenate with inhibitor – vector homogenate)/(OST-DGKα homogenate with DMSO – vector homogenate)×100.
Data for the screen on OST-DGKα homogenates are the mean of duplicates. The compounds showing inhibitory activity in this assay were tested >4 times and the mean ± SEM is reported.
To calculate IC50 values of active inhibitors, the inhibitor activity was measured at least three times at 0.1, 1.0, 10.0, and 100.0 µM concentration. Data were analysed using [inhibitor] vs. normalised response parameters with least square [ordinary] curve fitting method in GraphPad PRISM 8.0 software (GraphPad Software, La Jolla, CA) mentioning 95% confidence interval and IC50 values always greater than 0.0. […] In all the experiments, the data were normalised with the controls.
Each inhibitor was tested in duplicate at least once, and DGKα activity was expressed as percentage of residual DGKα activity compared to DMSO control in the same assay. Assay uses OST-DGKα overexpressing cell lysates in presence of saturating exogenous DAG and ATP. We considered R59022 (commercially available) and the lead compound Amb63975230 as our reference molecules.
To measure the inhibitor potency, we determined the IC50 values for the compounds that resulted active when tested at 100 µM by measuring the residual OST-DGKα activity over a dose range of inhibitor concentrations (0.1 µM, 1.0 µM, 10.0 µM, and 100.0 µM).

The term IC50 denotes the concentration that inhibits the measured activity by half. Lower therefore signals greater potency in that assay. As a reminder, the melting point is the temperature of the solid-liquid transition.

DGKα, sequence (P23743 whole entry): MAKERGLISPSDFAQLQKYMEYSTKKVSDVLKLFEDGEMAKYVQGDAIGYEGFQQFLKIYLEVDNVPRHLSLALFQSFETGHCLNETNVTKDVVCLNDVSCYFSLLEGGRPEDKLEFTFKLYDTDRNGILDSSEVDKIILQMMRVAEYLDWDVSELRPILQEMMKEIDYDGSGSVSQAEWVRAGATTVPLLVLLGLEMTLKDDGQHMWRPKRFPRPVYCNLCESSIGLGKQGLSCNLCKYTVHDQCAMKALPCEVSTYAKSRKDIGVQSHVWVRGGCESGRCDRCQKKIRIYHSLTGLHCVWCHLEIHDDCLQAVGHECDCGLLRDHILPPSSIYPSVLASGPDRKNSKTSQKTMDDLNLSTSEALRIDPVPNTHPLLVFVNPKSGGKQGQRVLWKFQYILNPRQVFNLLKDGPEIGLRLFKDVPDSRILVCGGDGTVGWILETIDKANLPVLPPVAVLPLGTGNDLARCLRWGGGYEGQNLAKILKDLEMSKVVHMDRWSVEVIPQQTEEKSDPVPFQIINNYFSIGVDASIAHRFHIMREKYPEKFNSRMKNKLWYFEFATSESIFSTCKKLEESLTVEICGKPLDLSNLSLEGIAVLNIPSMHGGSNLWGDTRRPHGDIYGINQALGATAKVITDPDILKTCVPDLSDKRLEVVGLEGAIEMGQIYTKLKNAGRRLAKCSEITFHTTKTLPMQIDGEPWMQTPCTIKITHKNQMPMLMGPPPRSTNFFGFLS

In the case of `Cn1c(-c2ccccc2)c(C(=O)CN2CCN(C(=O)c3ccco3)CC2)c2ccccc21` [Amb18718], the remaining activity at 100 µM on DGKα was 135%. Regarding `Cc1[nH]c2ccccc2c1C(=O)C(C)N1CCN(C(=O)c2ccccc2)CC1` (centres unmarked) [Amb37496], the remaining activity at 100 µM at DGKα stood at 114%.

In the case of `O=C(c1c[nH]c2ccccc12)C(c1ccccc1)N1CCN(C(=O)c2ccco2)CC1` (centres unmarked) [Amb94966], on DGKα, the remaining activity at 100 µM was 196%.

In the case of `O=C(CN1CCN(C(=O)c2ccco2)CC1)c1c(-c2ccccc2)[nH]c2ccccc12` [Amb98433], the remaining activity at 100 µM on DGKα was 81%. `CC(C(=O)c1c[nH]c2ccccc12)N1CCN(C(=O)c2ccco2)CC1` (centres unmarked) [Amb626577]: on DGKα, the remaining activity at 100 µM is 127%.

For the compound `COc1ccc2[nH]cc(C(=O)CN3CCN(C(=O)c4ccco4)CC3)c2c1` [Amb629700], the remaining activity at 100 µM at DGKα turned out to be 101%. In the case of `COc1ccc2[nH]c(C)c(C(=O)CN3CCN(C(=O)c4ccco4)CC3)c2c1` [Amb687392], the remaining activity at 100 µM at DGKα came to 115%.

Regarding `COc1ccc2c(C(=O)CN3CCN(C(=O)c4ccco4)CC3)c(C)n(C)c2c1` [Amb726054], the remaining activity at 100 µM on DGKα is 126%.

Regarding `Cc1c(C(=O)CN2CCN(C(=O)c3ccco3)CC2)c2ccccc2n1C` [Amb731111], the remaining activity at 100 µM at DGKα stood at 130%. Regarding `Cc1ccc2[nH]cc(C(=O)CN3CCN(C(=O)c4ccco4)CC3)c2c1` [Amb758592], the remaining activity at 100 µM on DGKα was found to be 150%. For the compound `Cc1ccc2c(C(=O)C(C)N3CCN(C(=O)c4ccco4)CC3)c(C)[nH]c2c1` (centres unmarked) [Amb758897], the remaining activity at 100 µM on DGKα came to 67%. Same read-out and setting: as for `Cc1[nH]c2ccccc2c1C(=O)C(c1ccccc1)N1CCN(C(=O)c2ccco2)CC1` (centres unmarked) [Amb1926062], the figure is 88%. In the case of `Cc1[nH]c2c(C)ccc(C)c2c1C(=O)CN1CCN(C(=O)c2ccco2)CC1` [Amb22018852], the remaining activity at 100 µM on DGKα was 160%. For the compound `O=c1c2ccccc2[nH]c(=S)n1CCC1CCC(=C(c2ccc(F)cc2)c2ccc(F)cc2)CC1` (centres unmarked) [Compound 1], the “inhibitory activity on the enzyme (DGKα)” value on DGKα was “totally devoid of inhibitory activity”. As to `O=C(CN1CCN(C(=O)c2ccco2)CC1)c1c[nH]c2ccccc12` [Compound 2], the remaining activity at 100 µM on DGKα was found to be 135%.

`Cc1ccc2c(C(=O)CN3CCN(C(=O)c4ccccc4)CC3)c(C)[nH]c2c1` [Compound 8, 2-(4-Benzoylpiperazin-1-yl)-1-(2,6-dimethyl-1H-indol-3-yl)ethan-1-one] yielded a melting point of 213.8 to 214.3 °C. Further, on DGKα, the remaining activity at 100 µM was 5% and inhibition was half-maximal at 3.2 µM (IC50). For `COc1ccc(C(=O)N2CCN(CC(=O)c3c(C)[nH]c4cc(C)ccc34)CC2)cc1` [Compound 12, 1-(2,6-Dimethyl-1H-indol-3-yl)-2-(4-(4-methoxybenzoyl)piperazin-1-yl)ethan-1-one] the same measures were 219.9 to 220.8 °C, 6% and 3.6 µM. The matching figures for `Cc1ccc2c(C(=O)CN3CCN(C(=O)c4ccc(C#N)cc4)CC3)c(C)[nH]c2c1` [Compound 13, 4-(4-(2-(2,6-Dimethyl-1H-indol-3-yl)-2-oxoethyl)piperazine-1-carbonyl)benzonitrile]: 243.9 to 244.8 °C, 14% and 6.9 µM. Regarding `Cc1ccc2c(C(=O)CN3CCN(C(=O)c4cccnc4)CC3)c(C)[nH]c2c1` [Compound 15, 1-(2,6-Dimethyl-1H-indol-3-yl)-2-(4-nicotinoylpiperazin-1-yl)ethan-1-one], the melting point lay in the range of 216.2 to 216.8 °C. Moreover, the remaining activity at 100 µM at DGKα is 89%. `Cc1ccc2c(C(=O)CN3CCN(C(=O)c4ccccc4C)CC3)c(C)[nH]c2c1` [Compound 16, 1-(2,6-Dimethyl-1H-indol-3-yl)-2-(4-(2-methylbenzoyl)piperazin-1-yl)ethan-1-one]: the melting point fell in the range of 200.5 to 201.6 °C. Also, at DGKα, the remaining activity at 100 µM was 27% and the IC50 stood at 32.8 µM. The compound `COc1cccc(C(=O)N2CCN(CC(=O)c3c(C)[nH]c4cc(C)ccc34)CC2)c1` [Compound 17, 1-(2,6-Dimethyl-1H-indol-3-yl)-2-(4-(3-methoxybenzoyl)piperazin-1-yl)ethan-1-one] returned a melting point of 209.8 to 210.4 °C. For the same compound, on DGKα, the remaining activity at 100 µM was 41%.

Compound `Cc1ccc2c(C(=O)CN3CCN(C(=O)c4ccc(F)c(F)c4)CC3)c(C)[nH]c2c1` [Compound 18, 2-(4-(3,4-Difluorobenzoyl)piperazin-1-yl)-1-(2,6-dimethyl-1H-indol-3-yl)ethan-1-one] registered a melting point of 233.8 to 235 °C. For the same compound, the remaining activity at 100 µM on DGKα stood at 47%.

`Cc1ccc2c(C(=O)CN3CCN(C(=O)c4cccc(Cl)c4)CC3)c(C)[nH]c2c1` [Compound 19, 2-(4-(3-Chlorobenzoyl)piperazin-1-yl)-1-(2,6-dimethyl-1H-indol-3-yl)ethan-1-one] registered a melting point of 222.3 to 223.5 °C. Moreover, on DGKα, the remaining activity at 100 µM was determined as 26% and half-maximal inhibition (IC50) required 49.7 µM. Turning to `Cc1ccc2c(C(=O)CN3CCN(C(=O)C4CCCC4)CC3)c(C)[nH]c2c1` [Compound 21, 2-(4-(Cyclopentanecarbonyl)piperazin-1-yl)-1-(2,6-dimethyl-1H-indol-3-yl)ethan-1-one], the remaining activity at 100 µM on DGKα worked out at 39%. As to `CCCCCCC(=O)N1CCN(CC(=O)c2c(C)[nH]c3cc(C)ccc23)CC1` [Compound 22, 1-(4-(2-(2,6-Dimethyl-1H-indol-3-yl)-2-oxoethyl)piperazin-1-yl)heptan-1-one], at DGKα, the remaining activity at 100 µM worked out at 48%.
